Laboratory results reported in US12453779B2, “Chemoselective thiol-conjugation with alkene or alkyne-phosphonothiolates and -phosphonates” (FORSCHUNGSVERBUND BERLIN E.V., priority 2018, dated 2025).

Tested on: CD30-overexpressing cell line Karpas 299
Assay: Cell based antiproliferation (resazurin) assay, Karpas 299
Conditions: Karpas 299, 96 hours of treatment, Brentuximab-NA3 DAR=3.15

Brentuximab: CD30-addressing antibody
growth inhibition (cell viability): does not show growth inhibition
